Ten compounds from PubChem BioAssay AID258 (DTP/NCI, 2004) can be followed below.

Where “and” joins values, the source holds several entries; their conditions need not be identical. Equal values may be shown once. Toxic doses and inconclusive results are not listed.

This test relates to CD2F1 mice, L1210 leukemia sc, survival T/C. Briefly: NCI In Vivo Anticancer Drug Screen. Data for tumor model L1210 Leukemia (subcutaneous) in CD2F1 (CDF1) mice. As to conditions: endpoint: median survival time, higher = longer survival. In short, it runs like this: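 Transplantable tumor-bearing mice were treated with compound; survival or tumor size measured and expressed as treated-group value (T) divided by vehicle-treated control value (C).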

Where [1] appears, read: dose: 50.0 mg/kg/injection, schedule: Q01DX009 (ip), vehicle: saline.
Setting [2] is: dose: 500.0 mg/kg/injection, schedule: Q01DX Z (sc), vehicle: methylcellulose (MC).

For the compound `O=C(NO)c1cc(O)c(O)c(O)c1`, the T/C runs as follows: (dose: 25.0 mg/kg/injection, schedule: Q01DX009 (ip), vehicle: distilled water + Tween-80) 97 % of control and 100 % of control; (dose: 50.0 mg/kg/injection, schedule: Q01DX009 (ip), vehicle: distilled water + Tween-80) 104 % of control; (dose: 100.0 mg/kg/injection, schedule: Q01DX009 (ip), vehicle: distilled water + Tween-80) 100 % of control and 102 % of control; (dose: 200.0 mg/kg/injection, schedule: Q01DX009 (ip), vehicle: distilled water + Tween-80) 124 % of control; (dose: 400.0 mg/kg/injection, schedule: Q01DX009 (ip), vehicle: distilled water + Tween-80) 90 % of control.
As for `CC[C@](O)(C(=O)O)c1cc2n(c(=O)c1CO)Cc1cc3ccccc3nc1-2`, the T/C is, setting by setting: (dose: 1.33 mg/kg/injection, schedule: Q01DX009 (ip), vehicle: saline) 121 % of control; (dose: 1.33 mg/kg/injection, schedule: Q01DX009 (sc), vehicle: saline) 122 % of control; (dose: 2.0 mg/kg/injection, schedule: Q01DX009 (ip), vehicle: saline) 154 % of control; (dose: 4.0 mg/kg/injection, schedule: Q01DX009 (ip), vehicle: saline) 113 % of control; (dose: 5.0 mg/kg/injection, schedule: Q01DX009 (sc), vehicle: saline) 101 % of control; (dose: 8.0 mg/kg/injection, schedule: Q01DX009 (ip), vehicle: saline) 86 % of control. For the same compound, the T/C (dose: 8.0 mg/kg/injection, schedule: Q01DX009 (sc), vehicle: saline) was 86 % of control; the T/C (dose: 12.0 mg/kg/injection, schedule: Q01DX009 (sc), vehicle: saline) was 115 % of control; the T/C (dose: 16.0 mg/kg/injection, schedule: Q01DX009 (sc), vehicle: saline) is 113 % of control.
Regarding `Cc1ccc(C(=O)Nc2ccc(S(=O)(=O)O)c3cc(S(=O)(=O)O)cc(S(=O)(=O)O)c23)cc1NC(=O)c1cccc(NC(=O)Nc2cccc(C(=O)Nc3cc(C(=O)Nc4ccc(S(=O)(=O)O)c5cc(S(=O)(=O)O)cc(S(=O)(=O)O)c45)ccc3C)c2)c1`, the T/C was 97 % of control (dose: 10.0 mg/kg/injection, schedule: Q07DX003 (iv), vehicle: water); 96 % of control (dose: 20.0 mg/kg/injection, schedule: Q07DX003 (iv), vehicle: water); 100 % of control (dose: 40.0 mg/kg/injection, schedule: Q07DX003 (iv), vehicle: water).
Consider `Cc1c(-c2ccc(-c3ccccc3F)cc2)nc2ccc(F)cc2c1C(=O)O`, for which the T/C is 153 % of control (dose: 12.5 mg/kg/injection, schedule: Q01DX009 (ip), vehicle: saline); 156 % of control (dose: 25.0 mg/kg/injection, schedule: Q01DX009 (ip), vehicle: saline); 150 % of control under setting [1].
As to `O=c1n(CC2CO2)c(=O)n(CC2CO2)c(=O)n1CC1CO1` (centres undefined), the T/C is 106 % of control (dose: 12.5 mg/kg/injection, schedule: Q04DX003 (ip), vehicle: saline); 114 % of control (dose: 25.0 mg/kg/injection, schedule: Q04DX003 (ip), vehicle: saline); 150 % of control and 191 % of control (dose: 40.0 mg/kg/injection, schedule: Q01DX009 (ip), vehicle: saline); 114 % of control (dose: 40.0 mg/kg/injection, schedule: Q04DX003 (ip), vehicle: saline); 172 % of control and 193 % of control under setting [1]; 153 % of control and 172 % of control (dose: 50.0 mg/kg/injection, schedule: Q04DX003 (ip), vehicle: saline).
With `O=c1n[n+]([O-])ccn1C1OC(CO)C(O)C1O` (centres undefined), the T/C is, setting by setting: (dose: 172.8 mg/kg/injection, schedule: Q01DX009 (ip), vehicle: saline) 109 % of control; (dose: 288.0 mg/kg/injection, schedule: Q01DX009 (ip), vehicle: saline) 123 % of control; (dose: 480.0 mg/kg/injection, schedule: Q01DX009 (ip), vehicle: saline) 152 % of control.
As for `Nc1nc(N)c2cc(CCc3ccc(C(=O)NC(CCC(=O)O)C(=O)O)cc3)ccc2n1` (centres undefined), the T/C runs as follows: (dose: 0.04 mg/kg/injection, schedule: Q01DX009 (ip), vehicle: Klucel (hydroxypropylcellulose) (HPC)) 98 % of control; (dose: 0.08 mg/kg/injection, schedule: Q01DX009 (ip), vehicle: Klucel (hydroxypropylcellulose) (HPC)) 102 % of control; (dose: 0.16 mg/kg/injection, schedule: Q01DX009 (ip), vehicle: Klucel (hydroxypropylcellulose) (HPC)) 105 % of control; (dose: 0.63 mg/kg/injection, schedule: Q01DX009 (ip), vehicle: Klucel (hydroxypropylcellulose) (HPC)) 89 % of control.
On to `COc1cc([C@@H]2c3cc4c(cc3[C@H](OC(C)=O)[C@H]3COC(=O)[C@@H]23)OCO4)cc(OC)c1OC`, for which the T/C under setting [2] is 100 % of control.
Consider `Nc1n[nH]c(N)n1`, for which the T/C by setting is: (dose: 259.0 mg/kg/injection, schedule: Q01DX Z (sc), vehicle: water) 100 % of control; (dose: 432.0 mg/kg/injection, schedule: Q01DX Z (sc), vehicle: water) 113 % of control; (dose: 720.0 mg/kg/injection, schedule: Q01DX Z (sc), vehicle: water) 118 % of control; (dose: 1200.0 mg/kg/injection, schedule: Q01DX Z (sc), vehicle: water) 122 % of control.
With `O=C(CSc1ncnc2nc[nH]c12)c1ccccc1`, the T/C was 95 % of control (dose: 38.9 mg/kg/injection, schedule: Q01DX Z (sc), vehicle: methylcellulose (MC)); 95 % of control (dose: 64.8 mg/kg/injection, schedule: Q01DX Z (sc), vehicle: methylcellulose (MC)); 100 % of control (dose: 108.0 mg/kg/injection, schedule: Q01DX Z (sc), vehicle: methylcellulose (MC)); 100 % of control (dose: 180.0 mg/kg/injection, schedule: Q01DX Z (sc), vehicle: methylcellulose (MC)); 100 % of control (dose: 300.0 mg/kg/injection, schedule: Q01DX Z (sc), vehicle: methylcellulose (MC)); 100 % of control under setting [2].
